# Measurements: article PMC7259601 (PLoS ONE, 2020)
# How the values were obtained:
# Experiment in all cases: CEREP Diversity Panel
# [1] = molecular target: T1, D4.4 (h) (antagonist radioligand) (Homo sapiens, UniProt P21917); format: binding
# T1 construct: purchased CEREP (Eurofins Cerep)
# Method: (§1) […]. MAO-A inhibition at 10 μM was 37%, in line with internal data.
# [2] = molecular target: T2, TRH1 (h) (agonist radioligand) (Homo sapiens, UniProt P34981); format: binding
# T2 construct: purchased CEREP (Eurofins Cerep)
# Method: as §1
# [3] = molecular target: T3, H2 (h) (antagonist radioligand) (Homo sapiens, UniProt P25021); format: binding
# T3 construct: purchased CEREP (Eurofins Cerep)
# Method: as §1
# [4] = molecular target: T4, choline transporter (CHT1) (h) (antagonist radioligand) (Homo sapiens, UniProt Q9GZV3); format: binding
# T4 construct: purchased CEREP (Eurofins Cerep)
# Method: as §1
# [5] = molecular target: T5, ETB (h) (agonist radioligand) (Homo sapiens, UniProt P24530); format: binding
# T5 construct: purchased CEREP (Eurofins Cerep)
# Method: as §1
# [6] = molecular target: T6, D3 (h) (antagonist radioligand) (Homo sapiens, UniProt P35462); format: binding
# T6 construct: purchased CEREP (Eurofins Cerep)
# Method: as §1
# [7] = molecular target: T7, CB1 (h) (agonist radioligand) (Homo sapiens, UniProt P21554); format: binding
# T7 construct: purchased CEREP (Eurofins Cerep)
# Method: as §1
# [8] = molecular target: T8, NK1 (h) (agonist radioligand) (Homo sapiens, UniProt P25103); format: binding
# T8 construct: purchased CEREP (Eurofins Cerep)
# Method: as §1
# [9] = molecular target: T9, NOP (ORL1) (h) (agonist radioligand) (Homo sapiens, UniProt P41146); format: binding
# T9 construct: purchased CEREP (Eurofins Cerep)
# Method: as §1
# [10] = molecular target: T10, H1 (h) (antagonist radioligand) (Homo sapiens, UniProt P35367); format: binding
# T10 construct: purchased CEREP (Eurofins Cerep)
# Method: as §1
# [11] = molecular target: T11, AT2 (h) (agonist radioligand) (Homo sapiens, UniProt P50052); format: binding
# T11 construct: purchased CEREP (Eurofins Cerep)
# Method: as §1
# [12] = molecular target: T12, CysLT1 (LTD4) (h) (agonist radioligand) (Homo sapiens, UniProt Q9Y271); format: binding
# T12 construct: purchased CEREP (Eurofins Cerep)
# Method: as §1
# [13] = molecular target: T13, B1 (h) (agonist radioligand) (Homo sapiens, UniProt P46663); format: binding
# T13 construct: purchased CEREP (Eurofins Cerep)
# Method: as §1
# [14] = molecular target: T14, CRF1 (h) (agonist radioligand) (Homo sapiens, UniProt P34998); format: binding
# T14 construct: purchased CEREP (Eurofins Cerep)
# Method: as §1
# [15] = molecular target: T15, NK2 (h) (agonist radioligand) (Homo sapiens, UniProt P21452); format: binding
# T15 construct: purchased CEREP (Eurofins Cerep)
# Method: as §1
# [16] = molecular target: T16, PR (h) (agonist radioligand) (Homo sapiens, UniProt P06401); format: binding
# T16 construct: purchased CEREP (Eurofins Cerep)
# Method: as §1
# [17] = molecular target: T17, PPARg (h) (agonist radioligand) (Homo sapiens, UniProt P37231); format: binding
# T17 construct: purchased CEREP (Eurofins Cerep)
# Method: as §1
# [18] = molecular target: T18, CCK1 (CCKA) (h) (agonist radioligand) (Homo sapiens, UniProt P32238); format: binding
# T18 construct: purchased CEREP (Eurofins Cerep)
# Method: as §1
# [19] = molecular target: T19, 5-HT transporter (h) (antagonist radioligand) (Homo sapiens, UniProt P31645); format: binding
# T19 construct: purchased CEREP (Eurofins Cerep)
# Method: as §1
# [20] = molecular target: T20, dopamine transporter (h) (antagonist radioligand) (Homo sapiens, UniProt Q01959); format: binding
# T20 construct: purchased CEREP (Eurofins Cerep)
# Method: as §1
# [21] = molecular target: T21, NK3 (h) (antagonist radioligand) (Homo sapiens, UniProt P29371); format: binding
# T21 construct: purchased CEREP (Eurofins Cerep)
# Method: as §1
# [22] = molecular target: T22, ETA (h) (agonist radioligand) (Homo sapiens, UniProt P25101); format: binding
# T22 construct: purchased CEREP (Eurofins Cerep)
# Method: as §1
# [23] = molecular target: T23, H3 (h) (agonist radioligand) (Homo sapiens, UniProt Q9Y5N1); format: binding
# T23 construct: purchased CEREP (Eurofins Cerep)
# Method: as §1
# [24] = molecular target: T24, GR (h) (agonist radioligand) (Homo sapiens, UniProt P04150); format: binding
# T24 construct: purchased CEREP (Eurofins Cerep)
# Method: as §1
# [25] = molecular target: T25, norepinephrine transporter (h) (antagonist radioligand) (Homo sapiens, UniProt P23975); format: binding
# T25 construct: purchased CEREP (Eurofins Cerep)
# Method: as §1
# [26] = molecular target: T26, A2A (h) (agonist radioligand) (Homo sapiens, UniProt P29274); format: binding
# T26 construct: purchased CEREP (Eurofins Cerep)
# Method: as §1
# [27] = molecular target: T27, A3 (h) (agonist radioligand) (Homo sapiens, UniProt P0DMS8); format: binding
# T27 construct: purchased CEREP (Eurofins Cerep)
# Method: as §1
# [28] = molecular target: T28, V2 (h) (agonist radioligand) (Homo sapiens, UniProt P30518); format: binding
# T28 construct: purchased CEREP (Eurofins Cerep)
# Method: as §1
# [29] = molecular target: T29, Eg5 (h) (Homo sapiens, UniProt P52732); format: biochemical
# T29 construct: purchased CEREP (Eurofins Cerep)
# Method: as §1
# [30] = molecular target: T30, PDE3A (h) (Homo sapiens, UniProt Q14432); format: biochemical
# T30 construct: purchased CEREP (Eurofins Cerep)
# Method: as §1
# [31] = molecular target: T31, tyrosine hydroxylase (Rattus norvegicus, UniProt P04177); format: biochemical
# T31 construct: purchased CEREP (Eurofins Cerep)
# Method: as §1
# [32] = molecular target: T32, GABA transaminase (Rattus norvegicus, UniProt P50554); format: biochemical
# T32 construct: purchased CEREP (Eurofins Cerep)
# Method: as §1
# [33] = molecular target: T33, 5-lipoxygenase (h) (Homo sapiens, UniProt P09917); format: biochemical
# T33 construct: purchased CEREP (Eurofins Cerep)
# Method: as §1
# [34] = molecular target: T34, CENP-E (h) (Homo sapiens, UniProt Q02224); format: biochemical
# T34 construct: purchased CEREP (Eurofins Cerep)
# Method: as §1
# [35] = molecular target: T35, PNMT (phenylethanolamine N-methyl transferase) (Bos taurus, UniProt P10938); format: biochemical
# T35 construct: purchased CEREP (Eurofins Cerep)
# Method: as §1
# [36] = molecular target: T36, phosphatase 1B (h) (PTP1B) (Homo sapiens, UniProt P18031); format: biochemical
# T36 construct: purchased CEREP (Eurofins Cerep)
# Method: as §1
# [37] = molecular target: T37, phosphatase CDC25A (h) (Homo sapiens, UniProt P30304); format: biochemical
# T37 construct: purchased CEREP (Eurofins Cerep)
# Method: as §1
# [38] = molecular target: T38, acetylcholinesterase (h) (Homo sapiens, UniProt P22303); format: biochemical
# T38 construct: purchased CEREP (Eurofins Cerep)
# Method: as §1
# [39] = molecular target: T39, PKCa (h) (Homo sapiens, UniProt P17252); format: biochemical
# T39 construct: purchased CEREP (Eurofins Cerep)
# Method: as §1
# T38 sequence (P22303 32-614): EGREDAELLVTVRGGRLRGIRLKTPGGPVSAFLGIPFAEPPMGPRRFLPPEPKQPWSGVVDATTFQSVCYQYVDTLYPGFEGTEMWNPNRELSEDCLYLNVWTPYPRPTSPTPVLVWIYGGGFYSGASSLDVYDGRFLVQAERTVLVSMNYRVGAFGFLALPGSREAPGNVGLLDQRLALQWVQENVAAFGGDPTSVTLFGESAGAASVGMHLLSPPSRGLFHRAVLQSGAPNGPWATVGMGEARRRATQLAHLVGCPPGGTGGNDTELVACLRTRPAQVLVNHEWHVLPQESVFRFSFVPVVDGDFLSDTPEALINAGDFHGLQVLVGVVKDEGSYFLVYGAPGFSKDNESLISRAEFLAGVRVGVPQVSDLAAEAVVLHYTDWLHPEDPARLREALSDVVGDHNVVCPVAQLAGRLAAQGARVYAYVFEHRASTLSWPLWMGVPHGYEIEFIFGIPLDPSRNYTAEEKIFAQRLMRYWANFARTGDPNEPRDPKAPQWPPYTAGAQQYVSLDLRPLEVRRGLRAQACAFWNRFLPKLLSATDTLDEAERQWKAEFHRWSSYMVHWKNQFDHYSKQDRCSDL
# T20 sequence (Q01959 whole entry): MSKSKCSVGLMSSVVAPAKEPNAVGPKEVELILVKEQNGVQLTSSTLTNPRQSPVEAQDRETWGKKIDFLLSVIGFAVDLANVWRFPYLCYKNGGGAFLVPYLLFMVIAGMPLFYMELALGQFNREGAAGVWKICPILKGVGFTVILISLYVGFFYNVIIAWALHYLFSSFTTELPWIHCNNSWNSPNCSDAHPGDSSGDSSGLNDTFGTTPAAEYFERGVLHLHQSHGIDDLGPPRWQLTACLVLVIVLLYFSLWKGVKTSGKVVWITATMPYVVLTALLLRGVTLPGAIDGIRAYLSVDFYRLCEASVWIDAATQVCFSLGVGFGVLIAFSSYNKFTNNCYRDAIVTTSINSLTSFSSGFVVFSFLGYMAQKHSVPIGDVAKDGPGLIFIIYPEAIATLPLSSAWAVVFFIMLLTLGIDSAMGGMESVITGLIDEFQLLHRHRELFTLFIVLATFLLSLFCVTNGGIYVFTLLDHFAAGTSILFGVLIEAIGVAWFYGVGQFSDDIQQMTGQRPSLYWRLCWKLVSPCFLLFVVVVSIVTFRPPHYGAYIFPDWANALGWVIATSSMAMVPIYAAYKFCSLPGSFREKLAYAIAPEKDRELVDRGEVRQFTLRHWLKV
# T27 sequence (P0DMS8 whole entry): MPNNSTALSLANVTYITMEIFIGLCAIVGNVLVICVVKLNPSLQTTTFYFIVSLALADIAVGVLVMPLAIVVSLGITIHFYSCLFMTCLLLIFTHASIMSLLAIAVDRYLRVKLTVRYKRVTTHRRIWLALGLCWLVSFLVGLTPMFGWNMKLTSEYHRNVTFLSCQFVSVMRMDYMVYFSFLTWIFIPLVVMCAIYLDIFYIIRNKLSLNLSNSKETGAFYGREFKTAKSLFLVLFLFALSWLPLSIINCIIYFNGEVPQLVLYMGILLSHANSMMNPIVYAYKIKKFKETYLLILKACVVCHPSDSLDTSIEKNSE
# T30 sequence (Q14432 whole entry): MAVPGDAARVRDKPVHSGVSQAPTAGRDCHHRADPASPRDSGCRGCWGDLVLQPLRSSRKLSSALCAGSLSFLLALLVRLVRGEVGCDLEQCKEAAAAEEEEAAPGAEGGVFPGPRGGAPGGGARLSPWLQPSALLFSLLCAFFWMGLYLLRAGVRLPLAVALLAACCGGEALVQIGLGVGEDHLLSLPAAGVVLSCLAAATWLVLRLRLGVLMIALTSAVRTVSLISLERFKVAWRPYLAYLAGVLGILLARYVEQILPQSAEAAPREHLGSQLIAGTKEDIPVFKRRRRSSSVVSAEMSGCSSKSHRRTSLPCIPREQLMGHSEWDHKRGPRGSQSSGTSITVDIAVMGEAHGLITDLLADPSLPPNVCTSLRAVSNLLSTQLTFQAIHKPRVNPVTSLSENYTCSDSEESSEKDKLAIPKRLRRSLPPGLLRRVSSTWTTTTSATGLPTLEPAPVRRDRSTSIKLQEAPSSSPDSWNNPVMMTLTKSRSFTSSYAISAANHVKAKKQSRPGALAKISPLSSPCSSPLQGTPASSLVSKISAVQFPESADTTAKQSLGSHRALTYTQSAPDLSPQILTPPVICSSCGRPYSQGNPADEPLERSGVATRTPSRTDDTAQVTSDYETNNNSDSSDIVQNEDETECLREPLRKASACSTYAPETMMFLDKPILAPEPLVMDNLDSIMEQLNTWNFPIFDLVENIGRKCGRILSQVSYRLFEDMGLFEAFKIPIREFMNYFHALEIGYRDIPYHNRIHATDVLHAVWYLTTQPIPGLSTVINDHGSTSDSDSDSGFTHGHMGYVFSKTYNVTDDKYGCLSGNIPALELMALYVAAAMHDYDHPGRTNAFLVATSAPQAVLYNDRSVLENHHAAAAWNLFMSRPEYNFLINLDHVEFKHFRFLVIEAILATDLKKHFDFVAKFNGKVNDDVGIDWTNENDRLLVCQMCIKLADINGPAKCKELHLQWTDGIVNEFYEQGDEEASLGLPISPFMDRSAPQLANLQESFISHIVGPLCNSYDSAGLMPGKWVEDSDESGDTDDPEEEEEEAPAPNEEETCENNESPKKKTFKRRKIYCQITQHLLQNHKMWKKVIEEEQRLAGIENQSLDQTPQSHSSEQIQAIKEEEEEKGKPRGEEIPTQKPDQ
# T19 sequence (P31645 whole entry): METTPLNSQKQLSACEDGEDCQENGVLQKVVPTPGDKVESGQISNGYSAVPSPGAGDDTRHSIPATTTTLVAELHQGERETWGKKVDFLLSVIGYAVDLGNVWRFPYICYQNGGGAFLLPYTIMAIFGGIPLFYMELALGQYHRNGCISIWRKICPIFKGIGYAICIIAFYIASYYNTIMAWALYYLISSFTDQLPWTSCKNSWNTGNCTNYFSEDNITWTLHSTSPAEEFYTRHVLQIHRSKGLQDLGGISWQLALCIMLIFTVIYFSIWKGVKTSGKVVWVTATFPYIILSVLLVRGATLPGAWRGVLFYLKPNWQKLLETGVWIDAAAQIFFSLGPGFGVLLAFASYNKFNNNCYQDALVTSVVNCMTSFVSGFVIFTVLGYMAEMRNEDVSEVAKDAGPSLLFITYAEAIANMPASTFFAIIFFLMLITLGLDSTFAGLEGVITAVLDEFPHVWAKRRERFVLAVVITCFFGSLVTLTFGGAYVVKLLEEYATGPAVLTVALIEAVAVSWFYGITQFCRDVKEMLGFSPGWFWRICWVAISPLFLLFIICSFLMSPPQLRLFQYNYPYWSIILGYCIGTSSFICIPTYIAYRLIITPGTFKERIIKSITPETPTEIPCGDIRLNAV
# T13 sequence (P46663 whole entry): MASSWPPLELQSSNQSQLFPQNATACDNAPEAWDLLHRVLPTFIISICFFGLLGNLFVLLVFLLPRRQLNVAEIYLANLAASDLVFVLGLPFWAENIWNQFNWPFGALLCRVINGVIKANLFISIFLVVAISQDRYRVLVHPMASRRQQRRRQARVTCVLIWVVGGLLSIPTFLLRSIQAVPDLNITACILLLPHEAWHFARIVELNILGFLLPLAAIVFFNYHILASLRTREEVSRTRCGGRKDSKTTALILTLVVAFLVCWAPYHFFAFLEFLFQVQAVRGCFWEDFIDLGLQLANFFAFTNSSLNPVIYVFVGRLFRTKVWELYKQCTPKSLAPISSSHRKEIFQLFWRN
# T23 sequence (Q9Y5N1 whole entry): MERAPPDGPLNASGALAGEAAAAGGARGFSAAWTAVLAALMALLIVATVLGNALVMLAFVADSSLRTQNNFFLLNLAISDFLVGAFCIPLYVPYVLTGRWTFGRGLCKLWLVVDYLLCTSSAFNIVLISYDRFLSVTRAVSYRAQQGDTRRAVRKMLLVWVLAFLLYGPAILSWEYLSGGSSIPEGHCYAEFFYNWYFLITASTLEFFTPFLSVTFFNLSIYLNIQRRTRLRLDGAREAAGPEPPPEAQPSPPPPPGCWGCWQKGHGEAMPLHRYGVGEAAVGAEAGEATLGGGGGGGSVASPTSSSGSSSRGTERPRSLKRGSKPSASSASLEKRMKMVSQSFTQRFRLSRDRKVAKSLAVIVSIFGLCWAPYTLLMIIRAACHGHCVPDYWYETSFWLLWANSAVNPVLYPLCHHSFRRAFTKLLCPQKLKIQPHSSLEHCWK
# T12 sequence (Q9Y271 whole entry): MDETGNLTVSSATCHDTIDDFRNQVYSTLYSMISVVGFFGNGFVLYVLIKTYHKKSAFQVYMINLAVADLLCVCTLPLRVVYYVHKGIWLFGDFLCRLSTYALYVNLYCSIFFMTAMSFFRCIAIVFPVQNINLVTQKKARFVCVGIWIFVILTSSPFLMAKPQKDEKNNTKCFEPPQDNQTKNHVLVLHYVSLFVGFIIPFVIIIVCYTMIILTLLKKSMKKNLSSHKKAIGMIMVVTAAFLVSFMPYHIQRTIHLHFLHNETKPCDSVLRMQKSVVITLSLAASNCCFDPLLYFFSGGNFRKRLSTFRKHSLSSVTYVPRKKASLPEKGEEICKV
# T3 sequence (P25021 whole entry): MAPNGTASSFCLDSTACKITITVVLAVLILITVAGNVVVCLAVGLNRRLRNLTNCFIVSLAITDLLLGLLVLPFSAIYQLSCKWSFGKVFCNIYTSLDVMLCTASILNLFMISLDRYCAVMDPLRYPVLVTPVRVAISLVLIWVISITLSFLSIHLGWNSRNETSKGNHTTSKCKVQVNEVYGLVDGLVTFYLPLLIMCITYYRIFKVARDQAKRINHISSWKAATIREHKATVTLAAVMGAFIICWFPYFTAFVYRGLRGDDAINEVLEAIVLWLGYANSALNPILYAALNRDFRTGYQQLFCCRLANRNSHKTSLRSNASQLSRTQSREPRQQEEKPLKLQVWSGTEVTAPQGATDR
structure (smiles),measurement,setting,value
"Nc1nnc(CN[C@@H]2C[C@H]2c2ccc(OCc3ccccc3)cc2)o1 [ORY-2001, vafidemstat]",inhibition at 10 µM,[1],9%
same,inhibition at 10 µM,[2],3%
same,inhibition at 10 µM,[3],-3%
same,inhibition at 10 µM,[4],-2%
same,inhibition at 10 µM,[5],-8%
same,inhibition at 10 µM,[6],8%
same,inhibition at 10 µM,[7],5%
same,inhibition at 10 µM,[8],3%
same,inhibition at 10 µM,[9],0%
same,inhibition at 10 µM,[10],-9%
same,inhibition at 10 µM,[11],-6%
same,inhibition at 10 µM,[12],4%
same,inhibition at 10 µM,[13],-1%
same,inhibition at 10 µM,[14],18%
same,inhibition at 10 µM,[15],2%
same,inhibition at 10 µM,[16],-11%
same,inhibition at 10 µM,[17],4%
same,inhibition at 10 µM,[18],-2%
same,inhibition at 10 µM,[19],2%
same,inhibition at 10 µM,[20],33%
same,inhibition at 10 µM,[21],2%
same,inhibition at 10 µM,[22],-23%
same,inhibition at 10 µM,[23],-1%
same,inhibition at 10 µM,[24],-9%
same,inhibition at 10 µM,[25],26%
same,inhibition at 10 µM,[26],-8%
same,inhibition at 10 µM,[27],-4%
same,inhibition at 10 µM,[28],-12%
same,inhibition at 10 µM,[29],-3%
same,inhibition at 10 µM,[30],1%
same,inhibition at 10 µM,[31],-12%
same,inhibition at 10 µM,[32],8%
same,inhibition at 10 µM,[33],3%
same,inhibition at 10 µM,[34],3%
same,inhibition at 10 µM,[35],1%
same,inhibition at 10 µM,[36],2%
same,inhibition at 10 µM,[37],5%
same,inhibition at 10 µM,[38],-4%
same,inhibition at 10 µM,[39],4%
